According to patent US20240059703A1 (AMGEN INC., priority 2021, published 2024):
pIC50: −log10 of the molar value.

Columns and labels:
[1] = molecular target: KRAS G12C (Homo sapiens (Human), UniProt P01116, C118A/G12C); test: 2 h coupled exchange assay; assay type: biochemical; conditions: Avg 2 h Coupled exchange IC50, 2 h compound pre-incubation
Method: The term “2 h coupled exchange assay” or “20 h coupled exchange assay” as used herein refers to the assay described in the Section entitled “BIOLOGICAL EVALUATION.”

[2] = tested on: MIA PaCa-2 (human pancreatic carcinoma) cells; test: Cell Viability Assay (CellTiter-Glo), MIA PaCa-2; assay type: cell-based
Method: Serially-diluted compound or DMSO was added to the cells, and plates were incubated at 37° C., 5% CO2 for 72 h. Cell viability was measured using a CellTiter-Glo® Luminescent Cell Viability Assay kit (Promega) according to the manufacturer's protocol. The luminescence signal of treated samples was normalized to DMSO control, and data were analyzed using a 4-parameter logistic model to calculate IC50 values.

[3] = tested on: A549 (human lung carcinoma) cells; test: Cell Viability Assay (CellTiter-Glo), A549; assay type: cell-based
Summary of the method: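 RPMI 1640/10% FBS; seed 1.67E+04 cells/mL, o/n 37° C., 5% CO2; serial-dilution cmpd 72 h; CellTiter-Glo luminescence vs DMSO; 4-parameter logistic fit → IC50.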

[4] = SOS-mediated nucleotide exchange

Sequence of KRAS G12C (P01116 other isoform, or with tags, fused parts or gaps G12C/C118A): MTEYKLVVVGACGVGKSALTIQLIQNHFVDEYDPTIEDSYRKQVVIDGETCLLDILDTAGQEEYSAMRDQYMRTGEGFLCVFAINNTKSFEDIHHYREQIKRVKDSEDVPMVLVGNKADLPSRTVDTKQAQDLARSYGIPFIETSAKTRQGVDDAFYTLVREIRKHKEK

Compound	pIC50 [1, 4]	pIC50 ([2]; Homo sapiens, MIA PaCa-2, 72 h)	pIC50 ([3]; Homo sapiens, A549, 72 h)	pIC50 [1]	pIC50 ([2]; 72 h)	pIC50 ([3]; 72 h)
C=CC(=O)N1CC2(CCN(c3nc4c(c(-c5c(C)ccc6[nH]ncc56)c3C(F)F)COC(C)(C)C4)C2)C1 [Example 13-45, 1-(6-(3-(difluoromethyl)-7,7-dimethyl-4-(5-methyl-1H-indazol-4-yl)-7,8-dihydro-5H-pyrano[4,3-b]pyridin-2-yl)-2,6-diazaspiro[3.4]octan-2-yl)-2-propen-1-one]	6.83	6.38	< 5.30			
C=CC(=O)N1CC2(CCN(c3nc4c(c(-c5ccc(F)cc5Cl)c3C#N)CCC(c3scnc3C)=C4)C2)C1 (atropisomer, axis not shown; (M)) [Example 23-32, (M)-4-(2-chloro-4-fluorophenyl)-7-(4-methyl-1,3-thiazol-5-yl)-2-(2-(2-propenoyl)-2,6-diazaspiro[3.4]octan-6-yl)-5,6-dihydro-3-quinolinecarbonitrile]				6.55	5.71	5.26
C=CC(=O)N1CC2(CCN(c3nc4ccccc4c(-c4cccc5sc(N)nc45)c3C#N)C2)C1 [Example 2-3, 4-(2-amino-1,3-benzothiazol-4-yl)-2-(2-(2-propenoyl)-2,6-diazaspiro[3.4]octan-6-yl)-3-quinolinecarbonitrile]	6.27	6.16	5.51			
C=CC(=O)N1CC2(CCN(c3nc4c(F)cccc4c(-c4c(C)ccc5[nH]ncc45)c3C#N)C2CF)C1 (stereo not drawn) [Example 1-49, 8-fluoro-2-(5-(fluoromethyl)-2-(2-propenoyl)-2,6-diazaspiro[3.4]octan-6-yl)-4-(5-methyl-1H-indazol-4-yl)-3-quinolinecarbonitrile]	6.91	4.61	4.87			
C=CC(=O)N1CC2(CCN(c3nc4c(c(-c5ccccc5Cl)c3C)CCC(c3c(C)cnn3C)C4)C2)C1 [Example 14-96, 1-(6-((7R)-4-(2-chlorophenyl)-7-(1,4-dimethyl-1H-pyrazol-5-yl)-3-methyl-5,6,7,8-tetrahydro-2-quinolinyl)-2,6-diazaspiro[3.4]octan-2-yl)-2-propen-1-one|1-(6-((7S)-4-(2-chlorophenyl)-7-(1,4-dimethyl-1H-pyrazol-5-yl)-3-methyl-5,6,7,8-tetrahydro-2-quinolinyl)-2,6-diazaspiro[3.4]octan-2-yl)-2-propen-1-one]		6.07	4.87	6.26		
C=CC(=O)N1CC2(CCN(c3nc4ccccc4c(-c4c(C)c(Cl)cc5[nH]ncc45)c3C#N)C2)C1 [Example 14-18, 4-(6-chloro-5-methyl-1H-indazol-4-yl)-2-(2-(2-propenoyl)-2,6-diazaspiro[3.4]octan-6-yl)-3-quinolinecarbonitrile]		6.49	< 5.30	7.37		
C=CC(=O)N1CC2(CCN(c3nc4c(c(-c5c(C)ccc6[nH]ncc56)c3C#N)C[C@H]3C[C@@H]4C3(C)C)C2)C1 [Example 13-93, (6R,8R)-2-(2-acryloyl-2,6-diazaspiro[3.4]octan-6-yl)-7,7-dimethyl-4-(5-methyl-1H-indazol-4-yl)-5,6,7,8-tetrahydro-6,8-methanoquinoline-3-carbonitrile]	7.28	7.89	< 5.30			
C=CC(=O)N1CC2(CCN(c3nc4c(c(-c5cccc(F)c5O)c3C#N)CCC(c3scnc3C)=C4)C2)C1 [Example 23-54, 4-(3-fluoro-2-hydroxyphenyl)-7-(4-methyl-1,3-thiazol-5-yl)-2-(2-(2-propenoyl)-2,6-diazaspiro[3.4]octan-6-yl)-5,6-dihydro-3-quinolinecarbonitrile]		5.68	< 5.30	6.95		
C=CC(=O)N1CC2(CCN(c3nc4c(c(-c5cc(O)ccc5Cl)c3C#N)CCN(C(C)C)C4)C2)C1 [Example 21-9, 4-(2-chloro-5-hydroxyphenyl)-7-(2-propanyl)-2-(2-(2-propenoyl)-2,6-diazaspiro[3.4]octan-6-yl)-5,6,7,8-tetrahydro-1,7-naphthyridine-3-carbonitrile]		< 5.30	< 5.30	6.58		
C=CC(=O)N1CC2(CCN(c3nc4c(c(-c5ccccc5F)c3C#N)CCN(C(C)CN(C)C)C4)C2)C1 [Example 21-38, 7-((2R)-1-(dimethylamino)-2-propanyl)-4-(2-fluorophenyl)-2-(2-(2-propenoyl)-2,6-diazaspiro[3.4]octan-6-yl)-5,6,7,8-tetrahydro-1,7-naphthyridine-3-carbonitrile 7-((2S)-1-(dimethylamino)-2-propanyl)-4-(2-fluorophenyl)-2-(2-(2-propenoyl)-2,6-diazaspiro[3.4]octan-6-yl)-5,6,7,8-tetrahydro-1,7-naphthyridine-3-carbonitrile]		6.71	< 5.30	6.75		
C=CC(=O)N1CC2(CCN(c3nc4c(c(-c5cccc(F)c5O)c3C)CC[C@H](c3c(C)cnn3C)C4)C2)C1 [Example 14-95, 1-(6-((7S)-7-(1,4-dimethyl-1H-pyrazol-5-yl)-4-(3-fluoro-2-hydroxyphenyl)-3-methyl-5,6,7,8-tetrahydro-2-quinolinyl)-2,6-diazaspiro[3,4]octan-2-yl)-2-propen-1-one]		5.47	4.81	6.16		
C=CC(=O)N1CC2(CCN(c3nc4c(c(-c5cc(O)ccc5C(F)(F)F)c3C#N)COC(C)(C)C4)C2)C1 [Example 14-86, 4-(5-hydroxy-2-(trifluoromethyl)phenyl)-7,7-dimethyl-2-(2-(2-propenoyl)-2,6-diazaspiro[3.4]octan-6-yl)-7,8-dihydro-5H-pyrano[4,3-b]pyridine-3-carbonitrile]		6.38	< 5.30	6.97		
C=CC(=O)N1CC2(CCN(c3nc4c(c(-c5ncccc5F)c3C#N)CCC(c3c(C)cnn3C)=C4)C2)C1 [Example 23-58, 7-(1,4-dimethyl-1H-pyrazol-5-yl)-4-(3-fluoro-2-pyridinyl)-2-(2-(2-propenoyl)-2,6-diazaspiro[3.4]octan-6-yl)-5,6-dihydro-3-quinolinecarbonitrile]		5.69	4.97	6.08		
C=CC(=O)N1CC2(CCN(c3nc4c(c(-c5cc(O)cc6ccccc56)c3C#N)CC(C)(C)C4)C2)C1 (single isomer, unassigned) [Example 13-69, (P)-4-(3-hydroxy-1-naphthalenyl)-6,6-dimethyl-2-(2-(2-propenoyl)-2,6-diazaspiro[3.4]octan-6-yl)-6,7-dihydro-5H-cyclopenta[b]pyridine-3-carbonitrile]	7.57	6.66	5.49			
C=CC(=O)N1CC2(CCN(c3nc4c(c(-c5cc(O)ccc5Cl)c3C#N)C3CCC4N(C(C)C)C3)C2)C1 (stereo not drawn) [Example 21-26]		6.47	4.74	6.48		
C=CC(=O)N1CC2(CCN(c3nc4c(c(-c5ccc(F)cc5F)c3C#N)CCN(C(C)C)C4)[C@H]2C)C1 [Example 21-18, 4-(2,4-difluorophenyl)-2-((5S)-5-methyl-2-(2-propenoyl)-2,6-diazaspiro[3.4]octan-6-yl)-7-(2-propanyl)-5,6,7,8-tetrahydro-1,7-naphthyridine-3-carbonitrile]		5.55	4.99	6.07		
